Source: publication PMC4763238, “Resveratrol induces autophagy by directly inhibiting mTOR through ATP competition” (Scientific Reports, 2016)

Biological target: T1, mTOR (Homo sapiens, UniProt P42345)
T1 construct: GST-tagged recombinant fragment mTOR, some regulatory domains deleted, intact kinase domain; also immunoprecipitated full-length HA-mTOR
Assay: in vitro kinase assay (GST-S6K or 4E-BP1 phosphorylation), with ATP competition and a resistant mutant
Type: biochemical

T1 sequence (P42345 1360-2549): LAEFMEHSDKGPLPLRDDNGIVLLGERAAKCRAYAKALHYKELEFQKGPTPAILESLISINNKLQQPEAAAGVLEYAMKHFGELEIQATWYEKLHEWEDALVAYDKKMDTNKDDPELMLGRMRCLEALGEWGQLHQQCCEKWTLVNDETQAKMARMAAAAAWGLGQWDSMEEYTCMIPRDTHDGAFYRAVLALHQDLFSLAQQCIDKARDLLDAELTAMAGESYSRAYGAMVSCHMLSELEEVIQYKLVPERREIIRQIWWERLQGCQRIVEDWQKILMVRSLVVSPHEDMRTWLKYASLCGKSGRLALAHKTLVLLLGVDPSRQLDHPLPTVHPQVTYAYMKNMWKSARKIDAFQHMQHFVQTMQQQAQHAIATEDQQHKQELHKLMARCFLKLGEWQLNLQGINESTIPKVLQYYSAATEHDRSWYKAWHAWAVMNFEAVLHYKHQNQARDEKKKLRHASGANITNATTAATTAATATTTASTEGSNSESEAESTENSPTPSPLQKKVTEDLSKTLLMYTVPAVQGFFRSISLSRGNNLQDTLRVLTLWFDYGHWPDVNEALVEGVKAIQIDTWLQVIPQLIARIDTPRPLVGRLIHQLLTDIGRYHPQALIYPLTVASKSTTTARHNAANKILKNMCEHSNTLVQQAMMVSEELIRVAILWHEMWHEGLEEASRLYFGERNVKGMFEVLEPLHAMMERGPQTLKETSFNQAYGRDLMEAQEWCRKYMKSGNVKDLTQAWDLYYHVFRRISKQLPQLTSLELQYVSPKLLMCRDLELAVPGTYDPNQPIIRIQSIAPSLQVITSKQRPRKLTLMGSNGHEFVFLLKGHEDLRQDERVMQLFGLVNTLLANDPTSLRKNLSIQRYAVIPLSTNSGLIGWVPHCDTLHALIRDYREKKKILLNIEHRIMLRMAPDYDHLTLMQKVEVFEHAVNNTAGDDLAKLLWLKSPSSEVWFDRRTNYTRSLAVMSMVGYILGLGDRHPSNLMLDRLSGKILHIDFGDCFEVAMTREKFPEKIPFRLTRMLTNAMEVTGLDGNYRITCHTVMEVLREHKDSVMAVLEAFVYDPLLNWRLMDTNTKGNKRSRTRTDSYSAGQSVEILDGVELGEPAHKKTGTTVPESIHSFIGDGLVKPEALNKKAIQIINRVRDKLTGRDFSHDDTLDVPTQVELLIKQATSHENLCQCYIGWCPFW

Oc1ccc(/C=C/c2cc(O)cc(O)c2)cc1 [resveratrol, 3,40,5-trihydroxy-trans-stilbene] gave an IC50 of roughly 10 µM.
